Test [1] concerns the target T1, CB1 receptors present in the CNS (Mus musculus, UniProt P47746).
T1 construct: from tissue; host or cells: live CD1 mouse, central nervous system
As to the kind of experiment: Reversion of the analgesic effect of CP-55,940 in tail flick test in mice. It counts as in vivo. To be noted: for reversion of the analgesic effect of CP-55,940: CP-55,940 0.3 mg/kg subcutaneous, FIG. 5. As to the method:
(§1) Male CD1 mice (Charles River Laboratories), weighting 30 to 40 g (7-8 weeks old) and Male Wistar rats (Charles River Laboratories), weighting 260-300 g (7-8 weeks old) at the time of experiment, were housed in a controlled environment. Temperature was maintained at 22±2° C. on a 12-h light/dark cycle (On at 07:00 h and Off at 19:00 h) and food and water were available ad libitum. The experiments were performed during the light phase. The number of mice ranged from 4 to 15 per group in each individual experiment. Animals were always handled in accordance with ethical principles for the evaluation of pain in conscious animals (Zimmerman, 1983) and with the European Communities Council Directive of 24 November 1986 (86/609/ECC), and received approval by the local Ethical Committee.
CP-55,940 (Ref. 0949, Tocris; Wiley et al., 1995) was administrated by subcutaneous route at 0.3 mg/kg in a volume of 5 ml/kg in mice and by intraperitoneal route at 0.5 mg/kg in a volume of 2 ml/kg in rat. NESS-0327 (Ruiu et al., 2003) was administrated by intraperitoneal route at 0.3 mg/kg and 1 mg/kg in a volume of 10 ml/kg in mice. […] All compounds were dissolved using HPMC (Hydroxypropyl methyl cellulose) which was prepared at a concentration of 0.5% in Milli-Q water.
The tail flick test was used to evaluate the antinociceptive effect of compounds. The test was performed as previously described (Moncada et al., 2003 and Robles et al., 1996). A noxious beam of light was focused on the mice tail about 4 cm from its tip, and the tail flick latency was recorded automatically to the nearest 0.1 s. The intensity of the radiant heat source was adjusted to produce latencies between 3-5 sec in vehicle treated mice and 2-4 sec in vehicle treated rats. In order to minimize cutaneous injuries a cut-off time of 10 s was used.
Mice were tested 60 min after subcutaneous administration of CP-55,940 (0.3 mg/kg) or vehicle (HPMC 0.5%).
Data are presented as tail flick latency responses in sec ±S.E.M and as percentage of analgesia ±S.E.M. The values in the control group were compared against those obtained in the treated groups. Statistical analysis to test intergroup comparisons was made using an initial one-way analysis of variant followed by the Newman-Keuls multiple comparison test. The level of significance was set at p<0.05.
For orientation: In hot-plate and tail-flick tests a longer latency is read as antinociception.

Test [2] has as its target T2, Human CB1 receptor (Homo sapiens, UniProt P21554). Description: In-vitro determination of functional activity to human CB1-receptors ([35S]GTPγS binding in presence of Win 55,212-2, CHO-CB1 membranes). It counts as biochemical. Further details: expressed in transfected cells; host or cells: CHO cells, stably transfected, membranes. To be noted: for functional behaviour at CB1 receptor (inverse agonist or neutral antagonist): [35S]GTPγS binding relative to basal levels, FIG. 1. As to the method: The binding of [^35S]GTPγS was carried out using a modification of previously published methods Meschler, J. P., Kraichely, D. M., Wilken, G. M AND Howlet, A. C. […] Eur. J. Pharm. Sci. 2004, 23 (3): 233-43.
Human CB1 membranes were prepared from stably transfected CHO cells. Incubation mixtures consisted of CHO-CB1 membrane preparation at a final concentration of 15 μg of protein, compound (dose-response curve between 3 nM and 3 μM, final well concentration), Win 55,212-2 (0.3 μM final well concentration) and binding buffer (50 mM HEPES, pH 7.4, 100 mM KCl, 5 mM MgCl2, 1 mM EDTA, 0.1% wt/vol bovine serum albumin, 5 μM GDP, saponin 10 μg/ml). Subsequently [^35S]GTPγS (0.25 nM) was added, samples were incubated for 60 minutes at 30° C. and finally filtered. Radioactivity on filters was measured with Wallac Microbeta Trilux. Data analysis was performed by using Graph Pad Prism version 3.03 for windows. The bottom plateau of the analyzed sigmoid curves is considered the Emin (Minimal efficacy) value and values of Emin<0 represents inverse agonism of the compounds.
Background: Binding of GTPγS marks nucleotide exchange on a G protein.

Test [3] in a line: Selectivity for 170 targets.
Test [4] has as its target T3, cannabinoid CB1 receptors present in the central nervous system (Rattus norvegicus, UniProt P20272).
T3 construct: from tissue; host or cells: live Wistar rat, central nervous system
As to the kind of experiment: Prevention of hypothermia produced by CP55,940 in rat. It counts as in vivo. Particulars: CP55,940 0.3 mg/kg ip, FIG. 4. As to the method: Male Wistar rats (220-270 g) were used. Rats were fed ad libitum with pellet standard rodent chow. Animals were maintained on a 12/12 hour light-dark cycle. They were randomized into groups for compound and vehicle dosing. Animals were first dosed, p.o., with vehicle (saline +1 drop of tween) or with the (4S,5S)-5-(4-chlorophenyl)-1-(2,4-dichlorophenyl)-N-(cis-2,6-dimethylpiperidin-1-yl)-4-methyl-4,5-dihydro-1H-pyrazole-3-carboxamide enantiomer (10 or 30 mg/kg) 60 minutes prior to the second administration, i.p., with vehicle or CP 55,940 (0.3 mg/kg). Body temperature was measured using a rectal probe connected to a thermometer (CIBERTEC). Measurements were performed at T=−60, 0, 60, 120 and 240 minutes following CP55,940 administration. CP,55,940 was administered just after the measurement of Body temperature at T=0.
Data were analyzed by a two-way (treatment, time) analysis of variance (ANOVA) with repeated measure on the time factor. A covariate was included to adjust for differences between treatment groups at baseline (Time 0). Comparisons between average treatment profiles were performed by defining appropriate tests for contrasts within the ANOVA analysis. A value of P<0.05 was considered significant. Data analysis was carried out with the SAS/STAT® release 9.1 statistical package (SAS Institute Inc., Cary, N.C.).

Test [5] deals with T4, CB1 receptors present in the CNS (Rattus norvegicus, UniProt P20272).
T4 construct: from tissue; host or cells: live Wistar rat, central nervous system
Description: Reversion of the analgesic effect of CP-55,940 in tail flick test in rat. It counts as in vivo. Particulars: 10 mg/kg oral. On the procedure: as §1
CP-55,940 (Ref. 0949, Tocris; Wiley et al., 1995) was administrated by subcutaneous route at 0.3 mg/kg in a volume of 5 ml/kg in mice and by intraperitoneal route at 0.5 mg/kg in a volume of 2 ml/kg in rat. NESS-0327 (Ruiu et al., 2003) was administrated by intraperitoneal route at 0.3 mg/kg and 1 mg/kg in a volume of 10 ml/kg in mice. […]
The tail flick test was used to evaluate the antinociceptive effect of compounds. […] A noxious beam of light was focused on the mice tail about 4 cm from its tip, and the tail flick latency was recorded automatically to the nearest 0.1 s. […]

Test [6] deals with T2, Human CB1 receptor. Description: In-vitro determination of affinity to human CB1-receptors ([3H] (+)-CP55,940 radioligand binding, HEK-293 membranes). Further details: expressed in transfected cells. Particulars: [3H] (+)-CP55,940 0.45 nM. As to the method:
Binding affinity for CB1 receptor was evaluated according to a modification of the Govaerts S J, Hermans E and Lambert D M. “Comparison of cannabinoid ligand affinities and efficacies in murine tissues and in transfected cells expressing human recombinant cannabinoid receptors”. Eur. J. Pharm. Sci. 2004, 23 (3): 233-43 described method. Human CB1 receptor was transfected into HEK-293 cells and a stable clone obtained and membranes prepared from this clone was used as the membrane source for radioligand binding studies. [3H] (+)-CP55,940 was used as radioligand at a final concentration of 0.45 nM. The incubation buffer was Tris-HCl 50 mM, MgCl2 5 mM, EDTA 1 mM, BSA 0.5%, pH 7.4 and the non-specific binding was determined with 10 μM of HU210. Samples were incubated at 37° C. for 60 min before filtration. Radioactivity on filters was measured with Wallac Winspectral 1414 counter by liquid scintillation in Ecoscint H (National Diagnostics, U.K.).

T1 sequence (P47746 whole entry): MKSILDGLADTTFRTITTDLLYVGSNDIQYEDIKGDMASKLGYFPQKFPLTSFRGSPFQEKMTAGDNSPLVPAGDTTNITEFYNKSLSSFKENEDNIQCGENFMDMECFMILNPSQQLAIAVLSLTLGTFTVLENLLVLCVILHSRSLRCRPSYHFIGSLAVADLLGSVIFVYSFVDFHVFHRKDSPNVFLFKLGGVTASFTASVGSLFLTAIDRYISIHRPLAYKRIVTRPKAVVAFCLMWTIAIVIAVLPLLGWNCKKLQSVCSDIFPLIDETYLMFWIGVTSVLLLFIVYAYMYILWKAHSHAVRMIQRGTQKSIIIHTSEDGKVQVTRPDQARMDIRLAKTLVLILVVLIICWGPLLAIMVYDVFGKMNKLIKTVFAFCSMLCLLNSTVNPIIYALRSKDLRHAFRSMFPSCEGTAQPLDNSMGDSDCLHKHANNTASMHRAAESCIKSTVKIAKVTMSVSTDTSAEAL
T2 sequence (P21554 whole entry): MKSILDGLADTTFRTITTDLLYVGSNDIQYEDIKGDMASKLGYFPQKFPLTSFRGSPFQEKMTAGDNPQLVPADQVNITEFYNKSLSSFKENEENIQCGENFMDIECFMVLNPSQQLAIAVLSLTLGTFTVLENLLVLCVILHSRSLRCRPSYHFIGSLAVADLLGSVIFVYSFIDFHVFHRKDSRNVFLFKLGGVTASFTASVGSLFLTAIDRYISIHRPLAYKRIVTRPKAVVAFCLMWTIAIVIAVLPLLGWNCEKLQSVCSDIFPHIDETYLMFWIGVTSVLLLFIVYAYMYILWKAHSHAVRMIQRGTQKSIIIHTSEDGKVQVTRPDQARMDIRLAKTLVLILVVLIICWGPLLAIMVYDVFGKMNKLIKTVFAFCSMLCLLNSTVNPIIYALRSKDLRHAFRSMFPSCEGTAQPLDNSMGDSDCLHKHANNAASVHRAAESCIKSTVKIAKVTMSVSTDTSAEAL
T4 sequence (P20272 whole entry): as the sequence (P47746 whole entry) above, with D95E counted along it
T3 sequence (P20272 whole entry): as the sequence (P47746 whole entry) above, with D95E counted along it

Regarding `O=C(NN1CCCCC1)c1nn(-c2ccc(Cl)cc2Cl)c2c1CCCc1cc(Cl)ccc1-2` [NESS-0327], the “reversion of the analgesic effect of CP-55,940” value in test [1] (0.3 mg/kg intraperitoneal) is listed as “not at 0.3 mg/kg”; in test [1] (1 mg/kg intraperitoneal), “significantly inhibited”. Moreover, the “effect by itself in tail flick test” value in test [1] (0.3 mg/kg intraperitoneal, without CP-55,940) is “Neither NESS-0327 (0.3 mg/kg) nor (1 mg/kg) showed an effect by themselves”; in test [1] (1 mg/kg intraperitoneal, without CP-55,940), “Neither NESS-0327 (0.3 mg/kg) nor (1 mg/kg) showed an effect by themselves”.
In the case of `CC1CCCC(C)N1NC(=O)C1=NN(c2ccc(Cl)cc2Cl)[C@H](c2ccc(Cl)cc2)[C@@H]1C` (mixture of isomers) [racemate cis-compound, cis-5-(4-chlorophenyl)-1-(2,4-dichlorophenyl)-N-(2,6-dimethylpiperidin-1-yl)-4-methyl-4,5-dihydro-1H-pyrazole-3-carboxamide, reference compound], the “functional behaviour at CB1 receptor (inverse agonist or neutral antagonist)” value is given as “behave as inverse agonists” on Human CB1 receptor [2] and “CB1 inverse agonism” at Human CB1 receptor [2] (listed as racemate compound).
Usually Ki stands for a measure of affinity in units of concentration, obtained from inhibition or displacement. As for `C[C@@H]1C(C(=O)NN2[C@H](C)CCC[C@@H]2C)=NN(c2ccc(Cl)cc2Cl)[C@@H]1c1ccc(Cl)cc1` [(4S,5S)-5-(4-chlorophenyl)-1-(2,4-dichlorophenyl)-N-(cis-2,6-dimethylpiperidin-1-yl)-4-methyl-4,5-dihydro-1H-pyrazole-3-carboxamide], in test [3], the “selective for 170 targets” value was 99%. The “prevention of the hypothermia produced by CP55,940” value in test [4] (10 mg/Kg p.o.) and in test [4] (30 mg/Kg p.o.) was “does not significantly prevent” each time. The “effect by itself in tail flick test” value is given as “Neither Rimonabant (5 mg/kg) nor the (4S,5S)-5-(4-chlorophenyl)-1-(2,4-dichlorophenyl)-N-(cis-2,6-dimethylpiperidin-1-yl)-4-methyl-4,5-dihydro-1H-pyrazole-3-carboxamide enantiomer (5 mg/kg) showed an effect by themselves” in test [1] (5 mg/kg intraperitoneal, without CP-55,940); “Neither Rimonabant (5 mg/kg) nor the(4S,5S)-enantiomer (5 mg/kg) showed an effect by themselves” in test [1] (5 mg/kg intraperitoneal, without CP-55,940, listed as (4S,5S)-enantiomer); “Neither Rimonabant (10 mg/kg) nor the ((4S,5S)-5-(4-chlorophenyl)-1-(2,4-dichlorophenyl)-N-(cis-2,6-dimethylpiperidin-1-yl)-4-methyl-4,5-dihydro-1H-pyrazole-3-carboxamide enantiomer (10 mg/kg) showed an effect by themselves” in test [5] (without CP-55,940); “Neither Rimonabant (10 mg/kg) nor (4S,5S)-enantiomer (10 mg/kg) showed an effect by themselves” in test [5] (without CP-55,940, listed as (4S,5S)-enantiomer). The molecule further registered an inhibition constant Ki on Human CB1 receptor [6] of 27 ± 10 nM. The figures for the “functional behaviour at CB1 receptor (inverse agonist or neutral antagonist)” value at Human CB1 receptor [2] and on Human CB1 receptor [2] (listed as (4S,5S) compound) were “neutral antagonist” and “behaves as a neutral antagonist”, respectively. Moreover, on Human CB1 receptor [2] ([35S]GTPγS binding, Win 55,212-2 0.3 μM, Emin<0 represents inverse agonism), the “Emin (Minimal efficacy)” value is listed as −1±8. In addition, the IC50 on Human CB1 receptor [2] ([35S]GTPγS binding, Win 55,212-2 0.3 μM, read-out: pIC50 (potency) (converted)) is 30.2 nM.

Source of the values: patent US20110028517A1 (LABORATORIOS DEL DR. ESTEVE, S.A., priority 2008, published 2011).
